In brackets after ≈: the same amount, converted by molar mass. Entries after “also recorded” stand apart in the source; their conditions may differ. Like-named read-outs stand apart in the source and are kept apart here.
Assays:
HIV-1 [1] = details: cited from earlier work
HIV-1 [2] = details: cited from earlier work; remark: listed apart in the source
HIV-1IIIb [3] = tested on: HIV-1IIIb
Method: (§6) The results of these assays are analyzed using Chou and Talalay's combination method (Chou and Talalay, 1984, Adv. Enzyme Regul. 22:27-55) and ‘Dose-Effect Analysis with Microcomputers’ software (Chou and Chou, 1987, software and manual. p19-64. Elsevier Biosoft, Cambridge, UK) in order to obtain a Combination Index. Combination Index values <1 indicates synergy, values>1 indicate antagonism and values equal to 1 indicate additive effects.
(§7) For this assay, 3×10^4 uninfected Molt4 cells are cocultivated with 3×10^3 H9/ LA1 or CEM/LA1 chronically infected cells per well in 24 well plates. Inhibitors are added on day 0, and the assay plates are re-fed on days 1 and 3 with growth medium containing the inhibitors. The assay is harvested on day 5. Antiviral activity is measured by several parameters: Western blot analysis of pelleted cells from treated cultures, RT levels, and p24 antigen levels in the supernatant.
(§8) The combined drug effects are calculated by the multiple drug analysis method of Chou and Talalay (Chou and Talalay, 1984, Adv. Enzyme Regul. 22:27-55) and ‘Dose-Effect Analysis with Microcomputers’ software (Chou and Chou, 1987, software and manual. p19-64. Elsevier Biosoft, Cambridge, UK) using the equation: [formula]
(§9) where CI is the combination index, (Dx)1 is the dose of drug 1 required to produce x percent effect alone, (D)1 is the dose of drug 1 required to produce the same x percent effect in combination with (D)2. The values of (Dx)2 and (D)2 are similarly derived from drug 2. The value of α is determined from the plot of the dose effect curve using the median effect equation:
(§10) where fa is the fraction affected by dose D, fu is the uninfected fraction, Dm is the dose required for 50% effect and m is the slope of the dose-effect curve. […] If the agents are mutually exclusive α is 0. and if they are mutually nonexclusive, α is 1. […] CI values of <1 indicate synergy, values>1 indicate antagonism and values equal to 1 indicate additive effects.

HIV-1IIIb [4] = assay: Combination indices from in vitro HIV-1IIIb/CEM co-culture (Chou and Talalay)
Method: as §6, §7, §8, §9, §10

HIV-1LA1 [5] = details: control peptides; cited from earlier work
[6] = Toxicity in in vitro studies and in animals
Description: The present invention provides the first reported use of such peptides in combination with another antiviral or any other therapeutic agent.

HIV-1LA1 [7] = assay: Cell fusion assay: syncytia formation, uninfected Molt4 cells co-cultivated with chronically HIV-1 infected CEM cells; type: cell-based
Method: A cell fusion assay may be utilized to test the peptides' ability to inhibit HIV-induced syncytia formation in vitro. Such an assay may comprise culturing uninfected CD-4^+ cells (such as Molt or CEM cells, for example) in the presence of chronically HIV-infected cells and a therapeutic agent to be assayed. For each combinational therapy, a range of concentrations may be tested. […] Standard conditions for culturing, well known to those of ordinary skill in the art, are used. After incubation for an appropriate period (24 hours at 37° C., for example) the culture is examined microscopically for the presence of multinucleated giant cells, which are indicative of cell fusion and syncytia formation.
Approximately 7×10^4 Molt cells were incubated with 1×10^4CEM cells chronically infected with the HIV-1LA1 virus in 96-well plates (one-half area cluster plates; Costar, Cambridge, Mass.) in a final volume of 100 μl culture medium as previously described (Matthews, T. J. et al., 1987, Proc. Natl. Acad. Sci. USA 84: 5424-5428). Peptide inhibitors were added in a volume of 10 μl and the cell mixtures were incubated for 24 hr. at 37° C. At that time, multinucleated giant cells were estimated by microscopic examination at a 40×magnification which allowed visualization of the entire well in a single field.
The initial screen for antiviral activity assayed peptides' ability to block syncytium formation induced by overnight co-cultivation of uninfected Molt4 cells with chronically HIV-1 infected CEM cells. […] For these experiments, CEM cells chronically infected with either HIV-1LA1, HIV-1MN, HIV-1RF, or HIV-1SF2 virus were cocultivated overnight with uninfected Molt 4 cells.

HIV-1MN = assay: Cell fusion assay: syncytia formation, Molt4 cells with chronically infected CEM cells; type: cell-based; details: HIV-1MN infected CEM cells
Description: (§1) The results of several such experiments are presented herein.

HIV-1RF = assay: as above; type: cell-based; details: HIV-1RF infected CEM cells
Description: as §1

HIV-1SF2 = assay: as above; type: cell-based; details: HIV-1SF2 infected CEM cells
Description: as §1

HIV-2 = assay: Cell fusion assay: HIV-2 mediated syncytia formation; type: cell-based; details: comparison HIV-1 / HIV-2, same cell type
HIV-1LA1 [8] = tested on: HIV-1LA1
Method: (§2) The resulting reverse transcriptase (RT) activity in counts per minute was determined using the assay described, below, in Section 6.1.5. See, Reed, L. J. et al., 1938, Am. J. Hyg. 27: 493-497 for an explanation of TCID50 calculations.
(§3) The micro-reverse transcriptase (RT) assay was adapted from Goff et al. (Goff, S. et al., 1981, J. Virol. 38:239-248) and Willey et al. (Willey, R. et al., 1988, J. Virol. 62:139-147). Supernatants from virus/cell cultures are adjusted to 1% Triton-X100. A 10 μl sample of supernatant was added to 50 μl of RT cocktail in a 96-well U-bottom microtitre plate and the samples incubated at 37° C. for 90 min. The RT cocktail contained 75 mM KCl, 2 mM dithiothreitol, 5 mM MgCl2, 5 μg/ml poly A (Pharmacia, cat. No. 27-4110-01), 0.25 units/ml oligo dT (Pharmacia, cat. No. 27-7858-01), 0.05% NP40, 50 mM Tris-HCl, pH 7.8, 0.5 μM non-radioactive dTTP, and 10 μCi/ml ^32P-dTTP (Amersham, cat. No. PB.10167).
After the incubation period, 40 μl of reaction mixture was applied to a Schleicher and Schuell (S+S) NA45 membrane (or DE81 paper) saturated in 2×SSC buffer (0.3 M NaCl and […] sodium citrate) held in a S+S Minifold over one sheet of GB003 (S+S) filter paper, with partial vacuum applied. Each well of the minifold was washed four times with 200 μl 2×SSC, under full vacuum. The membrane was removed from the minifold and washed 2 more times in a pyrex dish with an excess of 2×SSC. Finally, the membrane was drained on absorbent paper, placed on Whatman #3 paper, covered with Saran wrap, and exposed to film overnight at −70° C.
After 7 days of culture, cell-free supernatant was tested for the presence of RT activity as a measure of successful infection.

HIV-2NIHZ = assay: Cell free virus infection assay, CEM cells, reverse transcriptase readout; type: cell-based; details: 25 TCID50 HIV-2NIHZ, 7 days
Method: as §2, §3
After the incubation period, 40 μl of reaction mixture was applied to a Schleicher and Schuell (S+S) NA45 membrane (or DE81 paper) saturated in 2×SSC buffer (0.3 M NaCl and […] sodium citrate) held in a S+S Minifold over one sheet of GB003 (S+S) filter paper, with partial vacuum applied. Each well of the minifold was washed four times with 200 μl 2×SSC, under full vacuum. […]

HIV-1/IIIb = type: cell-based; details: 5 h
Description: Anti-HIV assays: The antiviral assays performed were as those described, above, in Section 6.1. Assays utilized HIV-1/IIIb and/or HIV-2 NIHZ isolates. Purified peptides were used, unless otherwise noted in FIGS. 5A-5L.

[9] = Cell proliferation and toxicity assay; type: cell-based; details: human, CEM cells
Method: (§4) Cell proliferation and toxicity assay: Approximately 3.8×10^5 CEM cells for each peptide concentration were incubated for 3 days at 37° C. in T25 flasks. […] The concentrations of each peptide used were 0, 2.5, 10, and 40 μg/ml. Cell counts were taken at incubation times of 0, 24, 48, and 72 hours.
(§5) Additionally, cells were incubated in the absence of either peptide.

CEM cells = assay: Cell proliferation and toxicity assay; type: cell-based
Method: as §4, §5

CC(C)c1nc(CN(C)C(=O)N[C@H](C(=O)N[C@@H](Cc2ccccc2)C[C@H](O)[C@H](Cc2ccccc2)NC(=O)OCc2cncs2)C(C)C)cs1 [ABT-538]
antiviral activity in vitro (HIV-1 [1]): potent antiviral activity
CD4 lymphocyte counts (HIV-1 [2]; AIDS patients): rise substantially
plasma HIV-1 levels (HIV-1 [2]; AIDS patients): decrease exponentially
pharmacokinetic and safety profiles in vivo (HIV-1 [2]; human, in vivo): favorable pharmokinetic and safety profiles

Cc1cn([C@H]2C[C@H](N=[N+]=[N-])[C@@H](CO)O2)c(=O)[nH]c1=O [AZT, 3′-azido-2′,3′-dideoxythymidine]
EC50 (HIV-1IIIb [3]): 13.1 µg/mL (≈ 49.2 µM)

CC(C)(C)NC(=O)[C@@H]1CN(Cc2cccnc2)CCN1C[C@@H](O)C[C@@H](Cc1ccccc1)C(=O)N[C@H]1c2ccccc2C[C@H]1O [Indinavir]
EC50 (HIV-1IIIb [3]): 0.0276 µg/mL (≈ 0.045 µM)

Cc1c(O)cccc1C(=O)N[C@@H](CSc1ccccc1)[C@H](O)CN1C[C@H]2CCCC[C@H]2C[C@H]1C(=O)NC(C)(C)C [Nelfinavir, reference compound]
EC50 (HIV-1IIIb [3]): 0.00927 µg/mL (≈ 0.0163 µM)
EC50 (HIV-1IIIb [4]; Human immunodeficiency virus 1, read-out: Dm Drug #2 (dose required for 50% effect)): 0.0609 µg/mL

Nc1ccn([C@@H]2CS[C@H](CO)O2)c(=O)n1 [Peptide 3TC, reference compound]
EC50 (HIV-1IIIb [3]): 0.0748 µg/mL (≈ 0.326 µM)
Dm Drug #2 (dose required for 50% effect) (HIV-1IIIb [4]; experiments T20:3TC 2:1, T20:Nelfinavir 5:1): 63.73 ng/mL

Ac-LQARILAVERYLKDQQQ-NH2 (N-terminus and C-terminus assumed) [DP-116]
activity previously shown in the cell-free virus infection assay (HIV-1LA1 [5]): inactive; also recorded: ineffective as a HIV inhibitor; also recorded: negative for inhibition of HIV-1 infection

Ac-NNLLRAIEAQQHLLQLTVWGIKQLQARILAVERYLKDQ-NH2 [DP-107]
toxicity in in vitro studies and in animals [6]: non-toxic

DP-180: control peptide incorporating the amino acid residues of DP-178 in a scrambled sequence (SSESFTLLEQWNNWKLQLAEQWLEQINEKHYLEDIS; Human immunodeficiency virus) [reference compound]
concentration with no evidence of anti-fusogenic activity (HIV-1LA1 [7]; high concentration tested): > 40 µg/mL

Enfuvirtide
selectivity as inhibitor of HIV-1-mediated over HIV-2 mediated cell fusion (HIV-1LA1 [7]): 4 log
concentration affording complete protection against syncytium formation (lowest concentration tested) (HIV-1LA1 [7]; HIVLA1 infected CEM cells, overnight co-cultivation): ≤ 12.5 ng/mL
lowest effective inhibitory concentration completely blocking virus induced syncytia formation (HIV-1LA1 [7]; Molt4 + chronically infected CEM cells, 24 hr): 1 to 10 ng/mL
peptide concentration blocking HIV-1-mediated syncytia formation (HIV-1LA1 [7]; comparison HIV-1 / HIV-2): below 1 ng/ml
concentration affording complete protection against syncytium formation (lowest concentration used) (HIV-1MN): ≤ 100 ng/mL
concentration affording complete protection against syncytium formation (lowest concentration used) (HIV-1RF): ≤ 100 ng/mL
concentration affording complete protection against syncytium formation (lowest concentration used) (HIV-1SF2): ≤ 100 ng/mL
concentration failing to block HIV-2 mediated syncytia formation (HIV-2): > 10 µg/mL
IC50, inhibition of HIV-1 infection (HIV-1LA1 [8]; 62 TCID50 HIV-1LA1, CEM cells, 7 days): about 3 ng/ml
IC50, inhibition of RT production from infected cells (HIV-1LA1 [8]; 247 TCID50 HIV-1LA1, CEM cells, 7 days): 0.09 µg/mL
potency as HIV-1 inhibitor relative to HIV-2 inhibitor (HIV-1LA1 [8]; HIV-1LA1 vs HIV-2NIHZ, cell-free infection): two logs more potent
IC50 for HIV-2NIHZ (HIV-2NIHZ): much higher IC50
Dm T20 (dose required for 50% effect) (HIV-1IIIb [4]; experiment T20:3TC 1:1.5): 158.87 ng/mL
Dm T20 (dose required for 50% effect) (HIV-1IIIb [4]; experiment T20:3TC 2:1): 298.50 ng/mL
Dm T20 (dose required for 50% effect) (HIV-1IIIb [4]; experiment T20:Indinavir 10:1): 298.50 ng/mL
Dm T20 (dose required for 50% effect) (HIV-1IIIb [4]; experiment T20:Nelfinavir 1.33:1): 172.02 ng/mL
Dm T20 (dose required for 50% effect) (HIV-1IIIb [4]; experiment T20:Nelfinavir 5:1): 298.50 ng/mL
Dm T20 (dose required for 50% effect) (HIV-1IIIb [4]; experiment T:20:AZT 1:10): 298.50 ng/mL

H-YTSLIHSLIEESQNQQEK-OH [Peptide T-4]
IC50, antiviral activity (HIV-1/IIIb): > 400 µg/mL

enfuvirtide
viability at 0 h, 2.5 µg/mL ([9]; 2.5 μg/ml, 0 hours): 98%
viability at 24 h, 2.5 µg/mL ([9]; 2.5 μg/ml, 24 hours): 93%
viability at 48 h, 2.5 µg/mL ([9]; 2.5 μg/ml, 48 hours): 96%
viability at 72 h, 2.5 µg/mL ([9]; 2.5 μg/ml, 72 hours): 96%
viability at 0 h, 10 µg/mL ([9]; 10 μg/ml, 0 hours): 98%
viability at 24 h, 10 µg/mL ([9]; 10 μg/ml, 24 hours): 97%
viability at 48 h, 10 µg/mL ([9]; 10 μg/ml, 48 hours): 98%
viability at 72 h, 10 µg/mL ([9]; 10 μg/ml, 72 hours): 98%
viability at 0 h, 40 µg/mL ([9]; 40 μg/ml, 0 hours): 98%
viability at 24 h, 40 µg/mL ([9]; 40 μg/ml, 24 hours): 97%
viability at 48 h, 40 µg/mL ([9]; 40 μg/ml, 48 hours): 95%
viability at 72 h, 40 µg/mL ([9]; 40 μg/ml, 72 hours): 97%
non-cytotoxic peptide concentration relative to HIV inhibitory dose (CEM cells): greater than 3 log
concentration non-cytotoxic to cells in culture (highest tested) (CEM cells; CEM cells, 3 days): > 40000 ng/mL
cytotoxic effects on cells in culture (CEM cells; CEM cells, up to 40 μg/ml, 3 days): no cytotoxic effects
toxicity in in vitro studies and in animals [6]: non-toxic

Source: patent US6475491B1, “Treatment of HIV and other viral infections using combinatorial therapy” (priority 1995, dated 2002)
